Converted amounts (≈) assume the structure as drawn.
Experiments:
Assay type in all cases: functional
Pseudomonas aeruginosa = assay: Antibacterial activity against Pseudomonas aeruginosa ATCC 27853 incubated for 16 to 18 hrs by broth microdilution assay
Escherichia coli = assay: Antibacterial activity against Escherichia coli ATCC 25922 incubated for 16 to 18 hrs by broth microdilution assay
Acinetobacter baumannii = assay: Antibacterial activity against Acinetobacter baumannii BAA1605 incubated for 16 to 18 hrs by broth microdilution assay
[1] = system: Mycobacterium tuberculosis; assay: Antitubercular activity against Mycobacterium tuberculosis H37Rv after 7 days by resazurin dye based assay; conditions: 168 h
Klebsiella pneumoniae = assay: Antibacterial activity against Klebsiella pneumoniae ATCC BAA-1705 incubated for 16 to 18 hrs by broth microdilution assay
Staphylococcus aureus = assay: Antibacterial activity against Staphylococcus aureus ATCC 29213 incubated for 16 to 18 hrs by broth microdilution assay

Molecule | MIC (Pseudomonas aeruginosa) [µg/mL] | MIC (Escherichia coli) [µg/mL] | MIC (Acinetobacter baumannii) [µg/mL] | MIC [1] [µg/mL] | MIC (Klebsiella pneumoniae) [µg/mL] | MIC (Staphylococcus aureus) [µg/mL]
C#CCNc1ccc2c(=O)n(-c3ccccc3)c(/C=C/c3ccc(C#N)cc3)nc2c1 | > 64 | > 64 | > 64 | > 64 | > 64 | > 64
N#Cc1ccc(/C=C/c2nc3ccc(OCc4cn(-c5cccc(Cl)c5)nn4)cc3c(=O)n2Cc2ccccc2)cc1 | > 64 | > 64 | > 64 | > 64 | > 64 | > 64
N#Cc1ccc(/C=C/c2nc3cc(-c4ccccc4)ccc3c(=O)n2-c2cccc(Cl)c2)cc1 | > 64 | > 64 | > 64 | > 64 | > 64 | > 64
C=CCOc1cccc(-n2c(/C=C/c3ccc(C#N)cc3)nc3cccc(F)c3c2=O)c1 | > 64 | > 64 | > 64 | > 64 | > 64 | 64 (≈ 151 µM)
N#Cc1ccc(/C=C/c2nc3ccccc3c(=O)n2Cc2ccc(Cl)c(Cl)c2)cc1 | > 64 | > 64 | > 64 | > 64 | > 64 | > 64
COc1ccc(-c2cn(-c3ccc4c(=O)n(-c5ccccc5)c(C)nc4c3)nn2)cc1 | > 64 | > 64 | > 64 | 64 (≈ 156 µM) | > 64 | > 64
GENTAMICIN | – | – | – | – | – | 0.25
N#Cc1ccc(/C=C/c2nc3ncccc3c(=O)n2-c2ccc3c(c2)OCCO3)cc1 | > 64 | > 64 | > 64 | > 64 | > 64 | > 64
N#Cc1ccc(/C=C/c2nc3ccccc3c(=O)n2-c2ccc(O)cc2C(=O)O)cc1 | > 64 | > 64 | > 64 | > 64 | > 64 | > 64
CO[C@H]1/C=C/O[C@@]2(C)Oc3c(C)c(O)c4c(O)c(c(/C=N/N5CCN(C)CC5)c(O)c4c3C2=O)NC(=O)/C(C)=C\C=C\[C@H](C)[C@H](O)[C@@H](C)[C@@H](O)[C@@H](C)[C@H](OC(C)=O)[C@@H]1C [RIFAMPIN] | – | – | – | 0.03 (≈ 0.0365 µM) | – | 0.015 (≈ 0.0182 µM)
COc1ccc(-c2cn(-c3ccc4c(=O)n(-c5ccccc5)c(/C=C/c5ccc(C#N)cc5)nc4c3)nn2)cc1 | > 64 | > 64 | > 64 | > 64 | > 64 | > 64
Cc1ccc(C)c(-n2c(/C=C/c3ccc(C#N)cc3)nc3ncccc3c2=O)c1 | > 64 | > 64 | > 64 | > 64 | > 64 | > 64
N#Cc1ccc(/C=C/c2nc3ccccc3c(=O)n2-c2cccnc2)cc1 | > 64 | > 64 | > 64 | > 64 | > 64 | 64 (≈ 183 µM)
N#Cc1ccc(/C=C/c2nc3ncccc3c(=O)n2-c2ccc(C#N)cc2)cc1 | > 64 | > 64 | > 64 | > 64 | > 64 | 64 (≈ 170 µM)
CC(C)(O/N=C(\C(=O)N[C@@H]1C(=O)N2C(C(=O)[O-])=C(C[n+]3ccccc3)CS[C@H]12)c1csc(N)n1)C(=O)O [CEFTAZIDIME] | – | – | – | – | – | 16 (≈ 29.3 µM)
COC(=O)Cn1c(/C=C/c2ccc(C#N)cc2)nc2ccccc2c1=O | > 64 | > 64 | > 64 | > 64 | > 64 | > 64
N#Cc1ccc(/C=C/c2nc3cccc(F)c3c(=O)n2-c2cccc(C#N)c2)cc1 | > 64 | > 64 | > 64 | > 64 | > 64 | 32 (≈ 81.6 µM)
Cc1nc2ccc(OCc3cn(Cc4ccc(Br)cc4)nn3)cc2c(=O)n1-c1ccccc1 | > 64 | > 64 | > 64 | > 64 | > 64 | 64 (≈ 127 µM)
C#CCOc1ccc2nc(/C=C/c3ccc(C#N)cc3)n(Cc3ccccc3)c(=O)c2c1 | > 64 | > 64 | > 64 | > 64 | > 64 | > 64
COc1ccc(-c2ccc3nc(/C=C/c4ccccc4)n(-c4ccccc4)c(=O)c3c2)cc1 | > 64 | > 64 | > 64 | 64 (≈ 149 µM) | > 64 | > 64
N#Cc1ccc(/C=C/c2nc3ccccc3c(=O)n2Nc2ccc(C(F)(F)F)cc2)cc1 | > 64 | > 64 | > 64 | > 64 | > 64 | > 64
COc1cc(-n2c(/C=C/c3ccc(C#N)cc3)nc3ncccc3c2=O)cc(OC)c1OC | > 64 | > 64 | > 64 | 64 (≈ 145 µM) | > 64 | 64 (≈ 145 µM)

Molecule | MIC (Pseudomonas aeruginosa) [µg/mL] | MIC (Escherichia coli) [µg/mL] | MIC (Acinetobacter baumannii) [µg/mL] | MIC [1] [µg/mL] | MIC (Klebsiella pneumoniae) [µg/mL] | MIC (Staphylococcus aureus) [µg/mL]
Cc1cccc(-n2c(/C=C/c3ccc(C#N)cc3)nc3ncccc3c2=O)c1C | > 64 | > 64 | > 64 | > 64 | > 64 | > 64
Cc1ccc(-c2cn(-c3ccc4c(=O)n(-c5ccccc5)c(C)nc4c3)nn2)cc1 | > 64 | > 64 | > 64 | > 64 | > 64 | > 64
Cc1cc(-n2cc(CNc3ccc4c(=O)n(-c5ccccc5)c(C)nc4c3)nn2)cc(C)c1C | > 64 | > 64 | > 64 | > 64 | > 64 | > 64
Cc1nc2ccc(OCc3cn(-c4ccc(Cl)cc4)nn3)cc2c(=O)n1Cc1ccccc1 | > 64 | > 64 | > 64 | > 64 | > 64 | > 64
N#Cc1ccc(/C=C/c2nc3ncccc3c(=O)n2-c2cccc(O)c2)cc1 | > 64 | > 64 | > 64 | > 64 | > 64 | > 64
N#Cc1ccc(/C=C/c2nc3ccccc3c(=O)n2-c2cccc3ccccc23)cc1 | > 64 | > 64 | > 64 | > 64 | > 64 | > 64
N#Cc1ccc(/C=C/c2nc3ncccc3c(=O)n2-c2cccc(C#N)c2)cc1 | > 64 | > 64 | > 64 | > 64 | > 64 | > 64
CC(C)(C)c1ccc(-n2c(/C=C/c3ccc(C#N)cc3)nc3ccccc3c2=O)cc1 | > 64 | > 64 | > 64 | > 64 | > 64 | > 64
N#Cc1ccc(/C=C/c2nc3ncccc3c(=O)n2Cc2ccc(F)cc2)cc1 | > 64 | > 64 | > 64 | > 64 | > 64 | > 64
C#CCOc1ccc2nc(/C=C/c3ccc(C#N)cc3)n(CC(=O)OC)c(=O)c2c1 | > 64 | > 64 | > 64 | > 64 | > 64 | > 64
COc1ccc(-c2ccc3nc(C)n(-c4ccccc4)c(=O)c3c2)cc1 | > 64 | > 64 | > 64 | > 64 | > 64 | 32 (≈ 93.5 µM)
Cc1nc2ccc(-c3ccc(F)cc3)cc2c(=O)n1-c1cccc(Cl)c1 | > 64 | > 64 | > 64 | > 64 | > 64 | > 64
CCC(C)(C)c1ccc(OCc2cn(-c3ccc4c(=O)n(-c5cccc(Cl)c5)c(C)nc4c3)nn2)cc1 | > 64 | > 64 | > 64 | > 64 | > 64 | > 64
N#Cc1ccc(/C=C/c2nc3ccc(OCc4cn(-c5ccc(F)c(Cl)c5)nn4)cc3c(=O)n2Cc2ccccc2)cc1 | > 64 | > 64 | > 64 | > 64 | > 64 | > 64
NNC(=O)c1ccncc1 [ISONIAZID] | – | – | – | 0.03 (≈ 0.219 µM) | – | –
COc1ccc(-c2ccc3c(=O)n(-c4cccc(Cl)c4)c(C)nc3c2)cc1 | > 64 | > 64 | > 64 | > 64 | > 64 | > 64
Cc1nc2cc(-n3cc(-c4ccccc4)nn3)ccc2c(=O)n1-c1ccccc1 | > 64 | > 64 | > 64 | > 64 | > 64 | > 64
Cc1cc(-n2cc(CNc3ccc4c(=O)n(-c5ccccc5)c(C)nc4c3)nn2)ccc1[N+](=O)[O-] | > 64 | > 64 | > 64 | > 64 | > 64 | > 64
Cc1cc(C)cc(OCc2cn(-c3ccc4c(=O)n(-c5cccc(Cl)c5)c(C)nc4c3)nn2)c1 | > 64 | > 64 | > 64 | > 64 | > 64 | > 64
Cc1nc2ccc(OCc3cn(-c4cccc(Cl)c4)nn3)cc2c(=O)n1Cc1ccccc1 | > 64 | > 64 | > 64 | > 64 | > 64 | > 64
CCCCCCCCCC(=O)N[C@@H](Cc1c[nH]c2ccccc12)C(=O)N[C@H](CC(N)=O)C(=O)N[C@@H](CC(=O)O)C(=O)N[C@@H]1C(=O)NCC(=O)N[C@@H](CCCN)C(=O)N[C@@H](CC(=O)O)C(=O)N[C@H](C)C(=O)N[C@@H](CC(=O)O)C(=O)NCC(=O)N[C@H](CO)C(=O)N[C@@H]([C@H](C)CC(=O)O)C(=O)N[C@@H](CC(=O)c2ccccc2N)C(=O)O[C@@H]1C | – | – | – | – | – | 0.5 (≈ 0.309 µM)
CN(C)c1ccc(O)c2c1C[C@H]1C[C@H]3[C@H](N(C)C)C(O)=C(C(N)=O)C(=O)[C@@]3(O)C(O)=C1C2=O [MINOCYCLINE] | – | – | – | – | – | 0.125 (≈ 0.273 µM)

— ChEMBL document CHEMBL4393707, “Synthesis and evaluation of new quinazolin-4(3H)-one derivatives as potent antibacterial agents against multidrug resistant Staphylococcus aureus and Mycobacterium tuberculosis” (Eur J Med Chem, 2019)
